{"source": "patent US7807181B2", "about": "“Neisseria mutants, lipooligosaccharides and immunogenic compositions” (Emory University, priority 2002, dated 2010)", "key": {"[1]": {"system": "Psf protein (arabinose 5-phosphate isomerase)", "experiment": "Colorimetric assay for keto-pentoses with purified Psf protein", "type": "biochemical, N. meningitidis", "conditions": "37° C., 10 min, 100 mM Tris-HCl pH 7.5, A540", "excerpt": "Psf is the arabinose 5-phosphate isomerase of N. meningitidis. […] To determine if Psf had isomerase activity, a colorimetric assay for keto-pentoses (Bigham et al., 1984) was first conducted using the purified Psf protein, which contained a C-terminal 6×His tag (FIG. 9A). […] The reaction was dependent on the concentration of Psf protein. […] The NMR chemical shifts of the phosphoryl groups of arabinose 5-P and ribulose 5-P are different, thus ^31P NMR can monitor the interconversion between the two sugars. […] The LOS defect in the psf mutant, but not the kdsB mutant, can be complemented by (exogenous) supplementation of arabinose in the growth medium (FIG. 9B), consistent with the identification of the Psf protein as an arabinose 5-phosphate isomerase.\nThe procedure of Dische and Borenfreund (Dische and Borenfreund, 1951, as modified by Bigham (Bigham, 1984) was used to determine the presence of ketopentoses. Briefly, enzyme was incubated at 37° C. for 10 min in the presence of various aldopentoses (ribose 5-phosphate, erythrose 4-phosphate, glucose 6-phosphate, and arabinose) and 100 mM Tris-HCl (pH 7.5) buffer and assayed as follows. A 250 μl aliquot of the reaction solution was quenched with the addition of 50 μl of a 1.5% cysteine solution followed immediately by 1.5 ml of concentrated H2S04. A 50 μl aliquot of 0.12% carbazole in 95% ethanol was then added, and the solution was heated at 37° C. for 30 min. The absorbance was read at 540 nm. As reported by Bigham et al. (1984), the conversion of 1 μmol of A5P to 1 μmol of Ru5P gave an ΔA of 8.2."}, "[2]": {"target": "T1, CD14/TLR4-MD-2 receptor complex (Homo sapiens, UniProt O00206+Q9Y6Y9)", "T1 construct": "endogenous in cells", "T1 sequence (O00206 24-839)": "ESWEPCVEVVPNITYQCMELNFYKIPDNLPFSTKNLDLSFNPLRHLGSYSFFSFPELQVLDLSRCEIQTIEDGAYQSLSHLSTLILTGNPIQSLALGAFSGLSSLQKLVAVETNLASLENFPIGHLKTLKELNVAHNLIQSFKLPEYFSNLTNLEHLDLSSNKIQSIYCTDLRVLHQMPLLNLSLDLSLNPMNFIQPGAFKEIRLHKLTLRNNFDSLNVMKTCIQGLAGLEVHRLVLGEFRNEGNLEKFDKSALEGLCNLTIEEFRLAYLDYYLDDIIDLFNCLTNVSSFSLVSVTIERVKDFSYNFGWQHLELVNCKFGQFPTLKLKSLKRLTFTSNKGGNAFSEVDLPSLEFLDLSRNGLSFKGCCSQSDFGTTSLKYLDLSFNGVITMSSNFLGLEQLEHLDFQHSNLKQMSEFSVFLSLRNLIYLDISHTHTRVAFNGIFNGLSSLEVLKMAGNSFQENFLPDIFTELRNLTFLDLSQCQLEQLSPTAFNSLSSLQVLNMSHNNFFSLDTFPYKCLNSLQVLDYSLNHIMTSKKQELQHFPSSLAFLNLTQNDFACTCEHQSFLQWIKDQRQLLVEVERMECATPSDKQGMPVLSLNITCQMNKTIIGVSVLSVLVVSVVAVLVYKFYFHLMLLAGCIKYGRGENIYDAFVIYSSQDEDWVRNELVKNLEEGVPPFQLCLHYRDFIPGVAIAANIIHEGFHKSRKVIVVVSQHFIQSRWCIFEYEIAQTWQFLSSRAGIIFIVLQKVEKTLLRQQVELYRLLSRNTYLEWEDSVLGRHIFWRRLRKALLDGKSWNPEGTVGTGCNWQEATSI", "T1 sequence (Q9Y6Y9 19-160)": "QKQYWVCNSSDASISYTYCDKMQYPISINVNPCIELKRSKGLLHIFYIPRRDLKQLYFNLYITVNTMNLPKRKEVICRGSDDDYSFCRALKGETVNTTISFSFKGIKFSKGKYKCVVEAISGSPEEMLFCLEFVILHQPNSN", "experiment": "Activation of receptor complex by synthetic KDO", "type": "cell-based", "conditions": "dose ranges from 10 ng-100 mg; data not shown", "excerpt": "Acid hydrolysis might affect lipid A phosphate head groups and contribute to attenuation."}, "[3]": {"system": "differentiated U937 and THP-1 human macrophage-like cells", "experiment": "Cytokine (TNFa, IL-1b, IL-8, IL-10) induction in macrophage-like cells stimulated with endotoxin", "type": "cell-based", "conditions": "2 mg/ml added during the induction assay", "excerpt": "The meningococcal mutant LOS preparations were used to investigate the role of endotoxin structure on the activation of macrophages via the CD14/TLR4-MD-2 receptor complex. Endotoxins were quantified and standardized based on lipid A content. Cytokine (TNFa, IL-1b, IL-8 or IL-10) induction, nitric oxide and reactive oxygen species (ROS) release from differentiated U937 and THP-1 human macrophage-like cells or RAW264.7 murine macrophages stimulated with endotoxin (0.56 pmole/ml, approximately 1 ng/ml) was studied.\nAlternatively, LOS from a genetically-defined mutants of the serogroup B N. meningitidis strain NMB (encapsulated, L2 immunotype) (listed in Table I) were initially extracted by the phenol-water method (21). Residual membrane phospholipids (unsaturated fatty acyl residues C18:0) were removed by repeated extraction of the dry LOS samples with 9:1 ethanol:water. The expected LOS fatty acyl components of 3-OHC12:0, 3-OHC14:0 and C12:0 and the absence of membrane phospholipids was assessed by Mass spectroscopy (GC-MS). LOS preparations were examined by SDS-PAGE (22), quantitated and standardized based on the number of lipid A molecules per sample (23). […] The resulting methyl b-trimethylsilylmyristate was identified and quantified by GC-MS analysis. […]"}}}
{"molecule": "O=C[C@H](O)[C@H](O)COP(=O)(O)O", "note": "[erythrose 4-phosphate]", "values": [{"measurement": "substrate for the Psf protein", "setting": "[1]", "result": "did not serve as substrates"}]}
{"molecule": "O=C[C@H](O)[C@H](O)[C@H](O)COP(=O)(O)O", "note": "[ribose 5-phosphate]", "values": [{"measurement": "substrate for the Psf protein", "setting": "[1]", "result": "did not serve as substrates"}]}
{"molecule": "O=C[C@H](O)[C@@H](O)[C@H](O)[C@H](O)COP(=O)(O)O", "note": "[glucose 6-phosphate]", "values": [{"measurement": "substrate for the Psf protein", "setting": "[1]", "result": "did not serve as substrates"}]}
{"molecule": "O=C(O)C(=O)CC(O)C(O)C(O)C(O)CO", "note": "(stereo not drawn) [Synthetic KDO, 2-keto-3-deoxyoctonic acid]", "values": [{"measurement": "activation of the CD14/TLR4-MD-2 receptor complex", "setting": "[2]", "result": "did not activate"}]}
{"molecule": "O=C[C@@H](O)[C@H](O)[C@H](O)CO", "note": "[arabinose]", "values": [{"measurement": "substrate for the Psf protein", "setting": "[1]", "result": "did not serve as substrates"}]}
{"molecule": "polymyxin B", "values": [{"measurement": "effect on meningococcal LOS-induced cytokine release", "setting": "[3]", "result": "neutralized"}]}
